Data: patent US9982017B2, “Synthetic apelin mimetics for the treatment of heart failure” (priority 2012, dated 2018)
Where a SMILES comes first, the peptide text is derived from it. Bridges are numbered along the chain shown (N, C = ends). [ ]: non-standard residue; d: D form. The star is where a group is joined. ξ: configuration not given here. Palmitoyl = CCCCCCCCCCCCCCCC(=O)*; Myristoyl = CCCCCCCCCCCCCC(=O)*; pGlu = O=C1CC[C@@H](C(=O)O)N1; NHPhenethyl = c1ccc(CCN*)cc1; Lauroyl = CCCCCCCCCCCC(=O)*; d(hCys) = N[C@H](CCS)C(=O)O; Nle = CCCC[C@H](N)C(=O)O; Api = NC1(C(=O)O)CCNCC1; AEEA = NCCOCCOCC(=O)O; ξPip = O=C(O)C1CCCCN1; Aib = CC(C)(N)C(=O)O; Inp = O=C(O)C1CCNCC1

assay: in vitro; conditions: rat, not told, Surrogate activity-based Plasma stability t½
Description: The slope of this line, k, was determined by linear regression (Microsoft Excel). • Stability half-life was then calculated by the formula, t ½=0.693÷k Surrogate Activity-Based Plasma Stability Assay:
The calcium flux protocol described above was followed, with the following changes. The peptides were also incubated with 5% rat plasma (Bioreclamation # [sequence]-M, Na Heparin-treated). Readings were taken at time points t0 and t24 hrs, after incubation in a 37° C. tissue culture incubator. Peptide plasma half-life in minutes was estimated by calculating the following:
2) Calculate slope of value above and

Going from CCCC[C@@H]1NC(=O)[C@@H]2CCCN2C(=O)CNC(=O)[C@H](CCCCN)NC(=O)[C@H](Cc2c[nH]cn2)NC(=O)[C@@H](NC(=O)[C@H](CC(C)C)NC(=O)[C@H](CCCNC(=N)N)NC(=O)[C@@H]2CCCN2C(=O)[C@H](CCCNC(=N)N)NC(=O)[C@@H]2CCC(=O)N2)CSSC[C@@H](C(=O)N[C@@H](CCC(=O)O)C(=O)O)NC1=O [Example 49, pE-R-P-R-L-C-H-K-G-P-Nle-C-E-OH] ([pGlu]RPRLCHKGP[Nle]CE-OH; disulfide 6-12) to CCCC[C@@H]1NC(=O)[C@@H]2CCCN2C(=O)CNC(=O)[C@H](CCCCN)NC(=O)[C@H](Cc2c[nH]cn2)NC(=O)[C@@H](NC(=O)[C@H](CC(C)C)NC(=O)[C@H](CCCNC(=N)N)NC(=O)[C@@H]2CCCN2C(=O)[C@H](CCCNC(=N)N)NC(=O)[C@@H]2CCC(=O)N2)CSSC[C@@H](C(=O)N[C@@H](Cc2c[nH]cn2)C(=O)O)NC1=O [Example 48, pE-R-P-R-L-C-H-K-G-P-Nle-C-H-OH] ([pGlu]RPRLCHKGP[Nle]CH-OH; disulfide 6-12), the half-life falls from > 16.7 h to 9.11 h.

CCCC[C@@H]1NC(=O)[C@@H]2CCCN2C(=O)CNC(=O)[C@H](CCCCN)NC(=O)[C@H](Cc2ccccc2)NC(=O)[C@@H](NC(=O)[C@H](CC(C)C)NC(=O)[C@H](CCCNC(=N)N)NC(=O)[C@@H]2CCCN2C(=O)[C@H](CCCNC(=N)N)NC(=O)[C@@H]2CCC(=O)N2)CCCCNC(=O)[C@H](Cc2ccccc2)NC1=O [Example 5, pE-R-P-R-L-K-F-K-G-P-Nle-F] ([pGlu]RPRLKFKGP[Nle]F; lactam 6-C) and CCCC[C@@H]1NC(=O)[C@@H]2CCCN2C(=O)CNC(=O)[C@H](CCCCN)NC(=O)[C@H](Cc2ccccc2)NC(=O)[C@@H](NC(=O)[C@H](CC(C)C)NC(=O)[C@H](CCCNC(=N)N)NC(=O)[C@@H]2CCCN2C(=O)[C@H](CCCNC(=N)N)NC(=O)[C@@H]2CCC(=O)N2)CSSC[C@@H](C(=O)N[C@@H](Cc2ccccc2)C(=O)O)NC1=O [Example 15, pE-R-P-R-L-C-F-K-G-P-Nle-C-F-OH] ([pGlu]RPRLCFKGP[Nle]CF-OH; disulfide 6-12) are within 1.5-fold of each other in half-life: 2.1 h for the first, 3.01 h for the second.

First: CCCC[C@@H]1NC(=O)[C@@H]2CCCN2C(=O)CNC(=O)C2(CCNCC2)NC(=O)[C@H](Cc2c[nH]cn2)NC(=O)[C@@H](NC(=O)[C@H](CC(C)C)NC(=O)[C@H](CCCNC(=N)N)NC(=O)[C@@H]2CCCN2C(=O)[C@H](CCCNC(=N)N)NC(=O)[C@@H]2CCC(=O)N2)CSSC[C@@H](C(=O)N[C@@H](Cc2ccccc2)C(=O)O)NC1=O [Example 21, pE-R-P-R-L-C-H-(4-NH-Isn)-G-P-Nle-C-F-OH] ([pGlu]RPRLCH[Api]GP[Nle]CF-OH; disulfide 6-12)
Second: CCCC[C@@H]1NC(=O)[C@@H]2CCCN2C(=O)CNC(=O)[C@H](CCC(=O)O)NC(=O)[C@H](Cc2c[nH]cn2)NC(=O)[C@@H](NC(=O)[C@H](CC(C)C)NC(=O)[C@H](CCCNC(=N)N)NC(=O)[C@@H]2CCCN2C(=O)[C@H](CCCNC(=N)N)NC(=O)[C@@H]2CCC(=O)N2)CSSC[C@@H](C(=O)N[C@@H](Cc2ccccc2)C(=O)O)NC1=O [Example 38, pE-R-P-R-L-C-H-E-G-P-Nle-C-F-OH] ([pGlu]RPRLCHEGP[Nle]CF-OH; disulfide 6-12)
The half-life of the first is lower: 10.7 h for the first, > 16.7 h for the second.

Compared with CCCCCCCCCCCC(=O)NCCCC[C@H](NC(=O)[C@@H]1CSSC[C@H](NC(=O)[C@H](CC(C)C)NC(=O)[C@H](CCCNC(=N)N)NC(=O)[C@@H]2CCCN2C(=O)[C@H](CCCNC(=N)N)NC(=O)[C@@H]2CCC(=O)N2)C(=O)N[C@@H](Cc2c[nH]cn2)C(=O)N[C@@H](CCCCN)C(=O)NCC(=O)N2CCC[C@H]2C(=O)N[C@@H](CCCC)C(=O)N1)C(=O)O [Example 26, pE-R-P-R-L-C-H-K-G-P-Nle-C-K(Lauroyl)-OH] ([pGlu]RPRLCHKGP[Nle]CK(Lauroyl)-OH; disulfide 6-12), CCCCCCCCCCCCCCCC(=O)NCCCC[C@H](NC(=O)[C@@H]1CSSC[C@H](NC(=O)[C@H](CC(C)C)NC(=O)[C@H](CCCNC(=N)N)NC(=O)[C@@H]2CCCN2C(=O)[C@H](CCCNC(=N)N)NC(=O)[C@@H]2CCC(=O)N2)C(=O)N[C@@H](Cc2c[nH]cn2)C(=O)N[C@@H](CCCCN)C(=O)NCC(=O)N2CCC[C@H]2C(=O)N[C@@H](CCCC)C(=O)N1)C(=O)O [Example 22, pE-R-P-R-L-C-H-K-G-P-Nle-C-K(Palmitoyl)-OH] ([pGlu]RPRLCHKGP[Nle]CK(Palmitoyl)-OH; disulfide 6-12) is lower in half-life: > 16.7 h for the first, 13.3 h for the second.

First: CCCC[C@@H]1NC(=O)[C@@H]2CCCN2C(=O)[C@H](CCCNC(=N)N)NC(=O)[C@H](CCCCN)NC(=O)[C@H](Cc2c[nH]cn2)NC(=O)[C@@H](NC(=O)[C@H](CC(C)C)NC(=O)[C@H](CCCNC(=N)N)NC(=O)[C@@H]2CCCN2C(=O)[C@H](CCCNC(=N)N)NC(=O)[C@@H]2CCC(=O)N2)CSSC[C@@H](C(=O)N[C@@H](Cc2ccccc2)C(=O)O)NC1=O [Example 45, pE-R-P-R-L-C-H-K-R-P-Nle-C-F-OH] ([pGlu]RPRLCHKRP[Nle]CF-OH; disulfide 6-12)
Second: CCCC[C@@H]1NC(=O)[C@@H]2CCCN2C(=O)CNC(=O)[C@H](CCCCN)NC(=O)[C@H](Cc2c[nH]cn2)NC(=O)[C@H](NC(=O)[C@H](CC(C)C)NC(=O)[C@H](CCCNC(=N)N)NC(=O)[C@@H]2CCCN2C(=O)[C@H](CCCNC(=N)N)NC(=O)[C@@H]2CCC(=O)N2)CSSC[C@H](C(=O)N[C@@H](Cc2ccccc2)C(=O)O)NC1=O [Example 57, pE-R-P-R-L-c-H-K-G-P-Nle-c-F-OH] ([pGlu]RPRL[dC]HKGP[Nle][dC]F-OH; disulfide 6-12)
The half-life of the first is lower: 2.79 h for the first, > 16.7 h for the second.

First: CCCC[C@@H]1NC(=O)[C@@H]2CCCN2C(=O)CNC(=O)[C@H](CCCCN)NC(=O)[C@H](Cc2c[nH]cn2)NC(=O)[C@@H](NC(=O)[C@H](CC(C)C)NC(=O)[C@H](CCCNC(=N)N)NC(=O)[C@@H]2CCCN2C(=O)[C@H](Cc2ccccc2)NC(=O)[C@@H]2CCC(=O)N2)CSSC[C@@H](C(=O)N[C@@H](Cc2ccccc2)C(=O)O)NC1=O [Example 31, pE-F-P-R-L-C-H-K-G-P-Nle-C-F-OH] ([pGlu]FPRLCHKGP[Nle]CF-OH; disulfide 6-12)
Second: CCCC[C@@H]1NC(=O)C2CCCCN2C(=O)CNC(=O)[C@H](CCCCN)NC(=O)[C@H](Cc2c[nH]cn2)NC(=O)[C@@H](NC(=O)[C@H](CC(C)C)NC(=O)[C@H](CCCNC(=N)N)NC(=O)[C@@H]2CCCN2C(=O)[C@H](CCCNC(=N)N)NC(=O)[C@@H]2CCC(=O)N2)CSSC[C@@H](C(=O)N[C@@H](Cc2ccccc2)C(=O)O)NC1=O (stereo partly drawn) [Example 46, pE-R-P-R-L-C-H-K-G-(Pipecolic acid)-Nle-C-F-OH] ([pGlu]RPRLCHKG[ξPip][Nle]CF-OH; disulfide 6-12)
The half-life of the first is higher: > 16.7 h for the first, 8.37 h for the second.

CCCCCCCCCCCCCCCC(=O)NCCCC[C@@H]1NC(=O)[C@@H](NC(=O)[C@H](CC(C)C)NC(=O)[C@H](CCCNC(=N)N)NC(=O)[C@@H]2CCCN2C(=O)[C@H](CCCNC(=N)N)NC(=O)[C@@H]2CCC(=O)N2)CSSC[C@@H](C(=O)N[C@@H](Cc2ccccc2)C(=O)O)NC(=O)[C@H](CCCC)NC(=O)[C@@H]2CCCN2C(=O)CNC(=O)[C@H](CCCCN)NC1=O [Example 23, pE-R-P-R-L-C-K(Palmitoyl)-K-G-P-Nle-C-F-OH] ([pGlu]RPRLCK(Palmitoyl)KGP[Nle]CF-OH; disulfide 6-12) and CCCC[C@@H]1NC(=O)[C@@H]2CCCN2C(=O)CNC(=O)[C@H](CCCCN)NC(=O)[C@H](CCC(=O)O)NC(=O)[C@@H](NC(=O)[C@H](CC(C)C)NC(=O)[C@H](CCCNC(=N)N)NC(=O)[C@@H]2CCCN2C(=O)[C@H](CCCNC(=N)N)NC(=O)[C@@H]2CCC(=O)N2)CSSC[C@@H](C(=O)N[C@@H](Cc2ccccc2)C(=O)O)NC1=O [Example 43, pE-R-P-R-L-C-E-K-G-P-Nle-C-F-OH] ([pGlu]RPRLCEKGP[Nle]CF-OH; disulfide 6-12) cannot be ordered by half-life: > 16.7 h for the first, > 16.7 h for the second.

First: CCCC[C@@H]1NC(=O)[C@@H]2CCCN2C(=O)CNC(=O)[C@H](CCCCN)NC(=O)[C@H](Cc2c[nH]cn2)NC(=O)[C@H](NC(=O)[C@H](CC(C)C)NC(=O)[C@H](CCCNC(=N)N)NC(=O)[C@@H]2CCCN2C(=O)[C@H](CCCNC(=N)N)NC(=O)[C@@H]2CCC(=O)N2)CCSSCC[C@H](C(=O)N[C@@H](Cc2ccccc2)C(=O)O)NC1=O [Example 55, pE-R-P-R-L-(D-hC)-H-K-G-P-Nle-(D-hC)-F-OH] ([pGlu]RPRL[d(hCys)]HKGP[Nle][d(hCys)]F-OH; disulfide 6-12)
Second: CCCC[C@@H]1NC(=O)[C@@H]2CCCN2C(=O)CNC(=O)[C@H](CCCCN)NC(=O)[C@H](Cc2c[nH]cn2)NC(=O)[C@@H](NC(=O)[C@H](CC(C)C)NC(=O)[C@H](CCCNC(=N)N)NC(=O)[C@H](CCCCN)NC(=O)[C@H](CCCNC(=N)N)NC(=O)[C@@H]2CCC(=O)N2)CSSC[C@@H](C(=O)N[C@@H](Cc2ccccc2)C(=O)O)NC1=O [Example 34, pE-R-K-R-L-C-H-K-G-P-Nle-C-F-OH] ([pGlu]RKRLCHKGP[Nle]CF-OH; disulfide 6-12)
The half-life of the first is higher: > 16.7 h for the first, 8.42 h for the second.

CCCCCCCCCCCCCC(=O)NCCOCCOCC(=O)NCCOCCOCC(=O)N[C@@H](CCC(N)=O)C(=O)N[C@@H](CCCNC(=N)N)C(=O)N1CCC[C@H]1C(=O)N[C@@H](CCCNC(=N)N)C(=O)N[C@@H](CC(C)C)C(=O)N[C@H]1CSSC[C@@H](C(=O)N[C@H](Cc2ccccc2)C(=O)O)NC(=O)[C@H](CCCC)NC(=O)[C@@H]2CCCN2C(=O)CNC(=O)[C@H](CCCCN)NC(=O)[C@H](Cc2c[nH]cn2)NC1=O [Example 58, Myristoyl-O2Oc-O2Oc-Q-R-P-R-L-C-H-K-G-P-Nle-C-f-OH] ({Myristoyl-AEEA-AEEA}-QRPRLCHKGP[Nle]C[dF]-OH; disulfide 6-12) and CCCC[C@@H]1NC(=O)[C@@H]2CCCN2C(=O)CNC(=O)[C@H](CCCCN)NC(=O)C(C)(C)NC(=O)[C@@H](NC(=O)[C@H](CC(C)C)NC(=O)[C@H](CCCNC(=N)N)NC(=O)[C@@H]2CCCN2C(=O)[C@H](CCCNC(=N)N)NC(=O)C2CCNCC2)CSSC[C@@H](C(=O)N[C@H](Cc2ccccc2)C(=O)O)NC1=O [Example 11, H-Isn-R-P-R-L-C-Aib-K-G-P-Nle-C-f-OH] (H-[Inp]RPRLC[Aib]KGP[Nle]C[dF]-OH; disulfide 6-12) cannot be ordered by half-life: > 16.7 h for the first, > 16.7 h for the second.

For CCCC[C@@H]1NC(=O)[C@@H]2CCCN2C(=O)CNC(=O)[C@H](Cc2ccccc2)NC(=O)[C@H](Cc2c[nH]cn2)NC(=O)[C@@H](NC(=O)[C@H](CC(C)C)NC(=O)[C@H](CCCNC(=N)N)NC(=O)[C@@H]2CCCN2C(=O)[C@H](CCCNC(=N)N)NC(=O)[C@@H]2CCC(=O)N2)CSSC[C@@H](C(=O)NCCc2ccccc2)NC1=O [Example 19, pE-R-P-R-L-C-H-F-G-P-Nle-C-Phenethylamine] ([pGlu]RPRLCHFGP[Nle]C-NHPhenethyl; disulfide 6-12), the half-life was 0.473 h.
